Laboratory results from ChEMBL document CHEMBL1201862, “PubChem BioAssay data set” (2004).
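Compound exposure: 48 hours, 5 concentrations, 96-well plates. Here, GI50 denotes the concentration required for 50% inhibition of growth.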 Active and inactive are the calls of the source. Cut-off read from the data, not from the text of the source: active = GI50 up to about 1.1 µM and inactive = higher.

Tests used:
Assay in all cases: NCI-60 cell line screen, 48 h
SK-MEL-5 = system: SK-MEL-5
786-0 = system: 786-0
ACHN = system: ACHN
SF-295 = system: SF-295
COLO 205 = system: COLO 205
Hs-578T = system: Hs-578T
LOX IMVI = system: LOX IMVI
IGROV-1 = system: IGROV-1
HCC 2998 = system: HCC 2998
MDA-MB-435 = system: MDA-MB-435
Malme-3M = system: Malme-3M
SF-268 = system: SF-268
KM12 = system: KM12
TK-10 = system: TK-10
MOLT-4 = system: MOLT-4
MCF7 = system: MCF7
M14 = system: M14
UACC-62 = system: UACC-62
NCI-H522 = system: NCI-H522
NCI-H460 = system: NCI-H460

Structure (SMILES)	GI50 (SK-MEL-5)	GI50 (786-0)	GI50 (ACHN)	GI50 (SF-295)	GI50 (COLO 205)	GI50 (Hs-578T)	GI50 (LOX IMVI)	GI50 (IGROV-1)	GI50 (HCC 2998)	GI50 (MDA-MB-435)	GI50 (Malme-3M)	GI50 (SF-268)	GI50 (KM12)	GI50 (TK-10)	GI50 (MOLT-4)	GI50 (MCF7)	GI50 (M14)	GI50 (UACC-62)	GI50 (NCI-H522)	GI50 (NCI-H460)
CCCCCCCCCCCC1NC(N)=NC(CCCO)=C1C(=O)OC (stereo not given)	2.24 µM (inactive)	1.83 µM (inactive)	4.22 µM (inactive)	2.93 µM (inactive)	1.88 µM (inactive)	1.92 µM (inactive)	1.66 µM (inactive)	1.84 µM (inactive)	2.35 µM (inactive)	1.88 µM (inactive)	5.12 µM (inactive)	2.48 µM (inactive)	1.61 µM (inactive)	2.23 µM (inactive)	1.86 µM (inactive)	1.79 µM (inactive)	1.93 µM (inactive)	4.38 µM (inactive)	1.77 µM (inactive)	1.94 µM (inactive)
CC(C)OC(=O)Nc1c([N+](=O)[O-])cc(C(F)(F)F)cc1[N+](=O)[O-]	> 100 µM (inactive)	15.9 µM (inactive)	> 100 µM (inactive)	54.1 µM (inactive)	> 100 µM (inactive)	35.1 µM (inactive)	> 100 µM (inactive)	> 66.7 µM (inactive)	> 100 µM (inactive)	> 100 µM (inactive)	> 100 µM (inactive)	39.4 µM (inactive)	> 100 µM (inactive)	> 100 µM (inactive)	> 46.5 µM (inactive)	> 100 µM (inactive)	> 100 µM (inactive)	> 100 µM (inactive)	> 95.7 µM (inactive)	> 100 µM (inactive)
COC(=O)C1CCC(=O)N1CN(C(C)=O)c1ccccc1Cl (stereo not given)	> 100 µM (inactive)	> 100 µM (inactive)	> 100 µM (inactive)	> 100 µM (inactive)	> 100 µM (inactive)	> 100 µM (inactive)	> 100 µM (inactive)	> 100 µM (inactive)	> 100 µM (inactive)	> 100 µM (inactive)	> 100 µM (inactive)	> 100 µM (inactive)	> 100 µM (inactive)	> 100 µM (inactive)	> 100 µM (inactive)	> 100 µM (inactive)	> 100 µM (inactive)	> 100 µM (inactive)	> 100 µM (inactive)	> 100 µM (inactive)
Cc1cc2c(cc1C)N1C(Cl)=C3CCCCC3=C(C#N)C1N2 (stereo not given)	3.72 µM (inactive)	1.92 µM (inactive)	3.16 µM (inactive)	20.4 µM (inactive)	16.5 µM (inactive)	7.85 µM (inactive)	2.19 µM (inactive)	6.76 µM (inactive)	8.69 µM (inactive)	6.03 µM (inactive)	16.8 µM (inactive)	9.25 µM (inactive)	9.02 µM (inactive)	5.65 µM (inactive)	3.48 µM (inactive)	4.16 µM (inactive)	7.38 µM (inactive)	2.94 µM (inactive)	2 µM (inactive)	18 µM (inactive)
CN1C(=O)c2ccccc2NC(=O)C12O[C@@H]2c1ccccc1 (stereo not given in full)	> 100 µM (inactive)	> 100 µM (inactive)	> 100 µM (inactive)	> 100 µM (inactive)	> 100 µM (inactive)	> 100 µM (inactive)	> 100 µM (inactive)	> 100 µM (inactive)	> 100 µM (inactive)	> 100 µM (inactive)	> 100 µM (inactive)	> 100 µM (inactive)	> 100 µM (inactive)	> 100 µM (inactive)	> 100 µM (inactive)	> 100 µM (inactive)	> 100 µM (inactive)	> 100 µM (inactive)	> 100 µM (inactive)	> 100 µM (inactive)
Cc1cc(=O)oc2c3c(ccc12)OC(c1ccc(Br)cc1)CC3=O (stereo not given)	11.6 µM (inactive)	5.48 µM (inactive)	11.7 µM (inactive)	10.7 µM (inactive)	12.7 µM (inactive)	2.56 µM (inactive)	2.98 µM (inactive)	10.7 µM (inactive)	14.6 µM (inactive)	4.69 µM (inactive)	6.43 µM (inactive)	10.2 µM (inactive)	13.9 µM (inactive)	13.7 µM (inactive)	1.79 µM (inactive)	4.27 µM (inactive)	10.4 µM (inactive)	7.98 µM (inactive)	4.42 µM (inactive)	15 µM (inactive)
N#Cc1ncc(C(Cl)Cl)nc1Cl	1.75 µM (inactive)	1.76 µM (inactive)	2.04 µM (inactive)	7.24 µM (inactive)	1.77 µM (inactive)	4.66 µM (inactive)	1.44 µM (inactive)	2.09 µM (inactive)	1.69 µM (inactive)	1.76 µM (inactive)	2.43 µM (inactive)	2.43 µM (inactive)	1.4 µM (inactive)	2.35 µM (inactive)	3.37 µM (inactive)	1.94 µM (inactive)	1.13 µM (inactive)	2.17 µM (inactive)	0.502 µM (active)	1.81 µM (inactive)
COc1cc2cc(C(=O)N3CC(CCl)c4ccc(NCCN)cc43)[nH]c2c(OC)c1OC (stereo not given)	0.116 µM (active)	0.228 µM (active)	0.08 µM (active)	0.197 µM (active)	0.222 µM (active)	0.472 µM (active)	0.155 µM (active)	0.112 µM (active)	0.146 µM (active)	0.2 µM (active)	0.172 µM (active)	0.242 µM (active)	0.206 µM (active)	0.33 µM (active)	0.0575 µM (active)	0.0361 µM (active)	0.198 µM (active)	0.111 µM (active)	0.046 µM (active)	0.0658 µM (active)
C=CC(C)(C)N[C@@H](C(=O)N1CCC[C@H]1c1nc(-c2nc(C(=O)OCC=C(C)C)c(C)o2)c(C)o1)C(C)C	22.3 µM (inactive)	19.5 µM (inactive)	29.4 µM (inactive)	20.1 µM (inactive)	22.4 µM (inactive)	18 µM (inactive)	30.6 µM (inactive)	28.8 µM (inactive)	18.9 µM (inactive)	18.5 µM (inactive)	18.6 µM (inactive)	20.9 µM (inactive)	23 µM (inactive)	24.3 µM (inactive)	15.2 µM (inactive)	23.4 µM (inactive)	29 µM (inactive)	18 µM (inactive)	16.9 µM (inactive)	24 µM (inactive)
O=c1/c(=C/c2ccc(-c3ccc(Cl)cc3Cl)o2)sc2n1[C@@H](c1ccc(Cl)cc1)C=C(c1cc(F)c(Cl)cc1Cl)N=2	46.5 µM (inactive)	45.3 µM (inactive)	> 100 µM (inactive)	53.2 µM (inactive)	78.5 µM (inactive)	29.6 µM (inactive)	57.9 µM (inactive)	33 µM (inactive)	12.8 µM (inactive)	54.3 µM (inactive)	> 100 µM (inactive)	36.1 µM (inactive)	87.5 µM (inactive)	13.4 µM (inactive)	22.4 µM (inactive)	33.5 µM (inactive)	> 100 µM (inactive)	25 µM (inactive)	84.3 µM (inactive)	60.3 µM (inactive)
O=C1NCC(CSc2nc3cc(C4CCCc5c4[nH]c4ccccc54)ccc3o2)N1 (stereo not given)	28.5 µM (inactive)	43.3 µM (inactive)	34.2 µM (inactive)	43.5 µM (inactive)	61.4 µM (inactive)	38.1 µM (inactive)	32.5 µM (inactive)	33 µM (inactive)	95.1 µM (inactive)	30.9 µM (inactive)	53.7 µM (inactive)	36 µM (inactive)	56.4 µM (inactive)	72.4 µM (inactive)	15.2 µM (inactive)	39.7 µM (inactive)	45.1 µM (inactive)	39.6 µM (inactive)	29.2 µM (inactive)	72.3 µM (inactive)
CN1CCN([C@H]2C[C@H]3[C@@H]4CC=C5C[C@@H](O)CC[C@]5(C)[C@H]4CC[C@]3(C)C2=O)CC1	> 100 µM (inactive)	> 100 µM (inactive)	> 100 µM (inactive)	> 100 µM (inactive)	> 100 µM (inactive)	> 100 µM (inactive)	> 100 µM (inactive)	> 100 µM (inactive)	> 100 µM (inactive)	> 100 µM (inactive)	> 100 µM (inactive)	> 100 µM (inactive)	> 100 µM (inactive)	> 100 µM (inactive)	> 100 µM (inactive)	> 100 µM (inactive)	> 100 µM (inactive)	> 100 µM (inactive)	> 100 µM (inactive)	> 100 µM (inactive)
O=S(=O)(O)c1ccc2c(/N=N/c3ccc(S(=O)(=O)O)c4ccccc34)c(O)c(S(=O)(=O)O)cc2c1	> 100 µM (inactive)	> 100 µM (inactive)	> 100 µM (inactive)	> 100 µM (inactive)	> 100 µM (inactive)	> 100 µM (inactive)	> 100 µM (inactive)	> 100 µM (inactive)	> 100 µM (inactive)	> 100 µM (inactive)	> 100 µM (inactive)	> 100 µM (inactive)	> 100 µM (inactive)	> 100 µM (inactive)	> 100 µM (inactive)	> 100 µM (inactive)	> 100 µM (inactive)	> 100 µM (inactive)	> 100 µM (inactive)	> 100 µM (inactive)
Cc1[nH]n(-c2nc3c(c(=O)[nH]2)CCCC3)c(=O)c1CCO	> 100 µM (inactive)	> 100 µM (inactive)	> 100 µM (inactive)	> 100 µM (inactive)	> 100 µM (inactive)	> 100 µM (inactive)	> 100 µM (inactive)	> 100 µM (inactive)	> 100 µM (inactive)	> 100 µM (inactive)	> 100 µM (inactive)	> 100 µM (inactive)	> 100 µM (inactive)	> 100 µM (inactive)	> 100 µM (inactive)	> 100 µM (inactive)	> 100 µM (inactive)	> 100 µM (inactive)	> 100 µM (inactive)	> 100 µM (inactive)
